Experimental data as given in publication PMC10604444, “Extra-Synaptic GABAA Receptor Potentiation and Neurosteroid-Induced Learning Deficits Are Inhibited by GR3027, a GABAA Modulating Steroid Antagonist” (Biomolecules, 2023).
Like-named read-outs stand apart in the source and are kept apart here.

What was measured:
[1] = molecular target: T1, human α5β3γ2L GABAA receptors expressed in HEK-293 cells (Homo sapiens, UniProt P28472+P31644); assay: Whole-cell patch clamp of GABA/THDOC-evoked currents, extra-synaptic protocol (Dynaflow); format: cell-based; conditions: for Current with GR3027 alone: baseline holding current +2.15 ± 1.4 pA, n = 9, not significant
T1 construct: The coding regions of the human GABAA receptor subunits were then amplified by PCR; expressed in transfected cells; host or cells: HEK-293 (permanently transfected, pcDNA3.1 vectors, CMV promoter)
Text: Wild-type HEK-293 cells (passage 4, originating from Pasteur Institute, Paris, France) were permanently transfected with vectors including the human CMV promoter for the constitutive expression of the human α5, β3, and γ2L GABAA receptor subunits (α5β3γ2L) or the human α1, β2, and γ2L GABAA receptor subunits (α1β2γ2L). The production of the plasmids used in the sub-cloning of the different subunits is published in Rahman et al..
The electrophysiological recordings from HEK-293 cells were performed with the whole-cell voltage clamp technique, at room temperature (21–23 °C). After compensation for liquid junction potential, a steady holding potential of −17 mV was used in all experiments. Patch pipettes were pulled from borosilicate glass (Bergman Labora AB, Danderyd, Sweden) and polished to a resistance of 2–5 MΩ when filled with intracellular solution and immersed in a bath (extracellular) solution (for solutions, see below). The pipette tips were filled by immersion in standard intracellular solution and subsequent back-filling with intracellular solution. The recordings were made using an Axopatch 200B amplifier and a Digidata 1322A (Axon Instruments, Foster City, CA, USA) controlled via a Pentium processor-based personal computer. Data were acquired using the pCLAMP software sampled at 10 kHz, filtered at 2–10 kHz, and analyzed with Clampfit (versions 9.0, both from Axon Instruments, Foster City, CA, USA). A series resistance between the pipette and cell membrane not higher than 20 MΩ was accepted. No series resistance compensation was used. The stability of series resistance was monitored repeatedly from the time course of capacitative transients during the experiments. The measured liquid junction potential between extracellular and intracellular solutions was subtracted from all data presented, as previously described. All experiments were performed at room temperature (21–23 °C).
In all electrophysiological experiments, tetrahydro-deoxycorticosterone (THDOC) was used as a positive GABAA receptor steroid modulator (PAM) to mimic the effect of AP on central GABAA channels. […] THDOC (Sigma Chemical Co., St. Louis, MO, USA) and GR3027 (3α-ethynyl, 3β-hydroxyl, 5α-androstan-17-oxime, golexanolone, Umecrine Cognition AB, Stockholm, Sweden) were dissolved in dimethyl sulfoxide (DMSO) using ultrasound, for the preparation of solutions containing a final DMSO concentration of 0.1%. GR3027 was discovered within a series of molecules developed and patented by T. Bäckström and G. Ragagnin, (patent WO 2008/063128). All solutions were complemented with DMSO to achieve the same final concentration as in the steroid-containing test solution. GABA (Sigma Chemical Co., St. Louis, MO, USA) was first prepared as a stock solution (dissolved in EC with ultrasonic treatment) to the desired concentrations, with the corresponding final concentrations of test solutions (30 µM and 0.3 µM; see protocols below). GABA was added to the experimental solution without a change in osmolarity.
The experimental protocols were designed to mimic the physiological conditions of the tonic (extra-synaptic) and phasic (synaptic) activation of GABAA receptors observed in central neurons, depending on the subunit compositions, respectively. GABA-evoked currents in HEK-293 cells expressing extra-synaptic (α5β3γ2L) or synaptic (α1β2γ2L) types of GABAA receptors were studied using the conventional whole-cell patch clamp technique. To mimic the physiological GABA exposure, the HEK-293 cells expressing α1β2γ2L GABAA receptors were exposed to short applications (40 ms) of 30 µM GABA, whereas HEK-293 cells expressing α5β3γ2L GABAA receptors were exposed to prolonged applications (6 s) of 0.3 µM GABA, either in the absence or presence of THDOC and/or GR3027.

[2] = tested on: male Wistar rats; assay: AP-induced loss of righting reflex (LoR); format: in vivo, rat
Text: Nanomolar concentrations of AP injected intravenously dramatically potentiate the GABA response at the GABAA receptor [1, 20]. […] Under normal circumstances, the righting reflex immediately corrects the orientation of the body when it is outside of its normal upright position, such as that of a rat that is placed on its side. When the rat is awake, it immediately turns around to be standing on its paws when dropped from a low distance above a surface. This ability can be lost with the injection of AP. Twelve male Wistar rats, with a weight of 267–307 g at the test occasion, were included in the study (Taconics, Denmark). The rats were housed at three animals per cage, with a normal day/night light cycle and ad libitum access to food and water (except during the short experiment, approximately 10 min). The week before the study, the animals were handled daily, to avoid stress during the experimental session. The handling included activities used during the test, i.e., holding, tail warming in water, and wrapping in op-blankets. AP (Umecrine AB) and GR3027 (Umecrine Cognition AB) were dissolved at a concentration of 2 mg/mL in 10% 2-hydroxypropyl-β-cyclodextrin (Sigma), respectively, by sonication. To measure the antagonism of AP-induced LoR, GR3027 was mixed with the AP solution at different ratios of AP to GR3027 1: 2.5–1:7.5. […]

[3] = tested on: patients with hepatic encephalopathy; design: method as in PMID 33894327; conditions: humans; cited from earlier work

T1 sequence (P31644 32-462): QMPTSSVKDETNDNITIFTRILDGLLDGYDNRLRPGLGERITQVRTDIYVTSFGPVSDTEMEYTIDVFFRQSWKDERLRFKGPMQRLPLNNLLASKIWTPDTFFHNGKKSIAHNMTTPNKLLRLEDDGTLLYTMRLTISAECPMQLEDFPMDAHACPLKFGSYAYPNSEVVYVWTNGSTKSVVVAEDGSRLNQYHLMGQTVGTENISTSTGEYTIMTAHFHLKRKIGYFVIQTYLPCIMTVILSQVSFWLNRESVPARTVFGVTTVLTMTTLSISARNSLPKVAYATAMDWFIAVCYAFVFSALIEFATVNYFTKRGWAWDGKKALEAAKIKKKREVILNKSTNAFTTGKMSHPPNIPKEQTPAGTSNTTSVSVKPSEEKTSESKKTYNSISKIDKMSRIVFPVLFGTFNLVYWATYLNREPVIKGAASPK
T1 sequence (P28472 26-473 isoform P28472-2 limits assumed): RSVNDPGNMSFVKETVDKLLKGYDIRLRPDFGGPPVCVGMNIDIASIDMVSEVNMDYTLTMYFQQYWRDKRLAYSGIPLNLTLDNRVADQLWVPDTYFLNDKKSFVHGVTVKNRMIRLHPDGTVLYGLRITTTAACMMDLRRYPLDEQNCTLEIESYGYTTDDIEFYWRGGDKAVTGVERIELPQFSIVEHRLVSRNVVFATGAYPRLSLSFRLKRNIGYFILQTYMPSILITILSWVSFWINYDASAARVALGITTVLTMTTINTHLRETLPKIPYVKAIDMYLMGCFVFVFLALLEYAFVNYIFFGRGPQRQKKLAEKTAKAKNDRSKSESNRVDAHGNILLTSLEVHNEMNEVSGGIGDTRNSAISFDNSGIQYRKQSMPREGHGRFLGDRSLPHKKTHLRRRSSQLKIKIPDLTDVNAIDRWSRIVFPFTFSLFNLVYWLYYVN
T1 sequence (P18507 40-475 partner): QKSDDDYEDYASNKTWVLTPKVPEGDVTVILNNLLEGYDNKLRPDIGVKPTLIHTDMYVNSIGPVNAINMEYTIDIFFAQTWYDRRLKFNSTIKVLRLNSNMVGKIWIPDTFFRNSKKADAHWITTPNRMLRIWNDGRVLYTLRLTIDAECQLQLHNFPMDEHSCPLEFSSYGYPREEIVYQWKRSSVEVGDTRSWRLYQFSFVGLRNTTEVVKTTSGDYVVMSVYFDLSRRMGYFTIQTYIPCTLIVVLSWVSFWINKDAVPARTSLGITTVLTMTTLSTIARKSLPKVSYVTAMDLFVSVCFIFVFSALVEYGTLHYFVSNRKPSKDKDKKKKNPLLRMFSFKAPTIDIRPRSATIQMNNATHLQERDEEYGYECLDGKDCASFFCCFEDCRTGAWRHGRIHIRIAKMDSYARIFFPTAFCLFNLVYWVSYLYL

## C#C[C@]1(O)CC[C@@]2(C)[C@@H](CC[C@@H]3[C@@H]2CC[C@]2(C)/C(=N/O)CC[C@@H]32)C1 [GR3027, 3α-ethynyl-3β-hydroxyl-5α-androstan-17-oxime]
[1]
  IC50: 344 nM
[1]; 200 nM THDOC + 0.3 µM GABA
  Imax for decrease of AUC of THDOC-potentiated GABA-mediated response: −35%
  Imax for decrease of peak current amplitude of THDOC-potentiated GABA-mediated response: −37%
[1]; 200 nM THDOC, absence of GABA
  Imax for reduction of THDOC-mediated outward current shift: −33%
[1]; 1 µM GR3027 + 0.3 µM GABA, absence of THDOC, SEM 0.9, p = 0.02, n = 7
  Mean change of peak current amplitude of GABA-mediated response: −7.0%
[1]; 1 µM GR3027 + 0.3 µM GABA, absence of THDOC, SEM 1.5, NS, n = 7
  Mean change of AUC of GABA-mediated response: −3.8%
[1]; 1 µM GR3027, 1 µM THDOC
  Effect on THDOC-induced current response (absence of GABA): significantly reduced
[1]; 1 µM GR3027, absence of THDOC
  Effect on baseline holding current: did not change the baseline holding current
[1]; 1 µM GR3027, no GABA or THDOC
  Current with GR3027 alone: +1.6 ± 1.4 pA
[1]; 3 µM GR3027, no GABA or THDOC
  Current with GR3027 alone: +0.73 ± 0.4 pA
[1]; 3 µM GR3027, 0.1, 0.3, 0.6 and 1 µM THDOC
  Effect on THDOC-induced current response (absence of GABA): significantly reduced
[1]; IC50 for decrease of AUC of THDOC-potentiated GABA-mediated response, 200 nM THDOC + 0.3 µM GABA, n = 4-14
  IC50: 341 nM
[1]; IC50 for decrease of peak current amplitude of THDOC-potentiated GABA-mediated response, 200 nM THDOC + 0.3 µM GABA, n = 4-14
  IC50: 563 nM
[2]; AP 2 mg/kg i.v., in 10% 2-hydroxypropyl-β-cyclodextrin
  Dosage of GR3027 that antagonizes AP-induced loss of righting reflex: 15 mg/kg
[2]; GR3027 15 mg/kg
  Effect on general condition of the rat: did not affect the general condition
[3]
  Effect in patients with hepatic encephalopathy: improves EEG, vigilance, and cognition
